Results published in patent publication US9994590B2, “Substituted [1,2,4]triazolo[1,5-a]pyrazines as phosphodiesterase inhibitors” (Sunovion Pharamaceuticals Inc., priority 2012, dated 2018).

What follows are compounds tested against recombinant human PDE-10 enzyme (human PDE-10A) (Homo sapiens (Human), UniProt Q9Y233) (assay: human PDE-10 inhibition assay (Molecular Devices IMAP PDE Fluorescence Polarization, enzyme assay IC50)). Conditions: Fluorescein-labeled cAMP/cGMP substrate, 40-minute incubation at 37° C.
Chain of recombinant human PDE-10 enzyme (human PDE-10A) (Q9Y233 whole entry): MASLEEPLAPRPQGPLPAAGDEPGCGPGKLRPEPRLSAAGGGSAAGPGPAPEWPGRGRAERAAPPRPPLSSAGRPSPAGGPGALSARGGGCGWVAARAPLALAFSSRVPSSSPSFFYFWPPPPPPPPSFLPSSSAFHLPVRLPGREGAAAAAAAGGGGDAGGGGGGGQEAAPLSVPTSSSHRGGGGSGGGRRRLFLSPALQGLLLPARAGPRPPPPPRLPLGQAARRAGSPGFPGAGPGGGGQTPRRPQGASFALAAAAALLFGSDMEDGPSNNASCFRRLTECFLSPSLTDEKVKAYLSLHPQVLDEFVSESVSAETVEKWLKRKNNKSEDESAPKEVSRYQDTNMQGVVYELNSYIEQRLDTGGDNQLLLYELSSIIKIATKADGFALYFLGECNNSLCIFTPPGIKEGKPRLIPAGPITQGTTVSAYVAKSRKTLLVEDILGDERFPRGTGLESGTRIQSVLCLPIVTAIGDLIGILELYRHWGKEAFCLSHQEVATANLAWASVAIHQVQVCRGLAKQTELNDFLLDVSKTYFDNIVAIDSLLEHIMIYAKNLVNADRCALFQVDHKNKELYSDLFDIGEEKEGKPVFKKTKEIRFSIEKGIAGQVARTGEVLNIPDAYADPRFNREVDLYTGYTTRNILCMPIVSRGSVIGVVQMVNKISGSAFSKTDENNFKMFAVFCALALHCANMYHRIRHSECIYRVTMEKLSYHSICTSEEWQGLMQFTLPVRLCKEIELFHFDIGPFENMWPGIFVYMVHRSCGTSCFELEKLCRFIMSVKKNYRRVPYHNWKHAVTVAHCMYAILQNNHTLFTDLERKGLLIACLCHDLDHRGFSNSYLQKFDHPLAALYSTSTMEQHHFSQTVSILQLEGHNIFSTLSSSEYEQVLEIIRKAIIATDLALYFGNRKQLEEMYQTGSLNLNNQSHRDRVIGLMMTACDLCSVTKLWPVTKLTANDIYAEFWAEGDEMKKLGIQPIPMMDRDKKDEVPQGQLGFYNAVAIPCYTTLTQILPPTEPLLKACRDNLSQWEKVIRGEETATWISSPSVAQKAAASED
Type: biochemical
Protocol: In one embodiment, the compounds provided herein were assayed for their ability to inhibit human PDE-10A. In one embodiment, the activities of the compounds were determined using the Molecular Devices IMAP PDE Fluorescence Polarization assay using recombinant human PDE-10 enzyme expressed in a baculoviral system. Briefly, 10 μL of a compound (0.2 nM-20 μM) was added to either a 96-well half area black plate or a 384-well black plate along with 10 μL of Fluorescein-labeled cAMP/cGMP substrate as per manufacturer's instructions and 10 μL of PDE enzyme (activity 0.1 U). Following a 40-minute incubation at 37° C., 60 μL of IMAP binding reagent was added. The plate was then read on a Perkin Elmer Victor (480-535 nm). The data was analyzed using Prism Software (GraphPad Inc, San Diego, Calif.).

Row | IC50 | Structure (SMILES)
1 | 100 to 500 nM | Cc1ccn2c(C)c(C3CC3c3nc4c(C)ncc(C)n4n3)nc2c1 (stereo not drawn) [Compound 6, 2-(2-(3,7-Dimethylimidazo[1,2-a]pyridin-2-yl)cyclopropyl)-5,8-dimethyl-[1,2,4]triazolo[1,5-a]pyrazine]
2 | > 500 nM | Cc1ncc(C)n2nc(C3CCC3c3nc4c5cccnc5ccc4n3C)nc12 (racemic) [Compound 40, (±)-2-(2-(5,8-dimethyl-[1,2,4]triazolo[1,5-a]pyrazin-2-yl)cyclobutyl)-3-methyl-3H-imidazo[4,5-f]quinoline]
3 | 100 to 500 nM | Cn1c(C2CC2c2ccc3ccccc3n2)nc2c3cccnc3ccc21 (stereo not drawn) [Compound 20, 3-Methyl-2-(2-(quinolin-2-yl)cyclopropyl)-3H-imidazo[4,5-f]quinoline]
4 | 10 to 100 nM | COc1cc(F)cn2c(C)c(C3CC3c3nc4c(C)ncc(C)n4n3)nc12 (racemic) [Compound 34, (±)-2-(2-(6-fluoro-8-methoxy-3-methylimidazo[1,2-a]pyridin-2-yl)cyclopropyl)-5,8-dimethyl-[1,2,4]triazolo[1,5-a]pyrazine]
5 | 100 to 500 nM | Cc1ncc(C)n2nc([C@H]3C[C@@H]3c3nc4c5cccnc5ccn4c3C)nc12 (single isomer, unassigned) [Compound 26]
6 | 10 to 100 nM | COc1cc(C)cn2c(F)c(C3CC3c3nc4c(C)ncc(C)n4n3)nc12 (racemic) [Compound 44, (±)-2-(2-(3-fluoro-8-methoxy-6-methylimidazo[1,2-a]pyridin-2-yl)cyclopropyl)-5,8-dimethyl-[1,2,4]triazolo[1,5-a]pyrazine]
7 | > 500 nM | Fc1ccn2cc(C3CC3c3cn4ccc(F)cc4n3)nc2c1 (stereo not drawn) [Compound 9]
8 | ≤ 10 nM | Cc1ncc(C)n2nc([C@@H]3C[C@H]3c3nc4c5cccnc5ccc4n3C)nc12 [Compound 29]
9 | > 500 nM | Fc1ccn2cc(C3CCC3c3cn4cccc(Cl)c4n3)nc2c1 (racemic) [Compound 58, (±)-8-chloro-2-(2-(7-fluoroimidazo[1,2-a]pyridin-2-yl)cyclobutyl)imidazo[1,2-a]pyridine]
10 | ≤ 10 nM | Cc1ncc(C)n2nc([C@@H]3C[C@H]3c3nc4c5cccnc5ccn4c3C)nc12 (single isomer, unassigned) [Compound 27]
11 | > 500 nM | Cn1c(C2CCC2c2nc3c4cccnc4ccc3n2C)nc2c3cccnc3ccc21 (stereo not drawn) [Compound 25, 1,2-Bis(3-methyl-3H-imidazo[4,5-f]quinolin-2-yl)cyclobutane]
12 | > 500 nM | Cc1ccn2cc(C3CC3c3nc4c(C)ncc(C)n4n3)nc2c1 (stereo not drawn) [Compound 12, 5,8-Dimethyl-2-(2-(7-methylimidazo[1,2-a]pyridin-2-yl)cyclopropyl)-[1,2,4]triazolo[1,5-a]pyrazine]
13 | > 500 nM | Cc1ncc(C)n2cc(C3CC3c3nc4c(C)ncc(C)n4n3)nc12 (racemic) [Compound 45, (±)-2-(2-(5,8-dimethylimidazo[1,2-a]pyrazin-2-yl)cyclopropyl)-5,8-dimethyl-[1,2,4]triazolo[1,5-a]pyrazine]
14 | > 500 nM | CCOc1ccn2c(C)c(C3CC3c3nc4c(C)ncc(C)n4n3)nc2c1 (stereo not drawn) [Compound 14]
15 | 100 to 500 nM | COc1cccc2c1nc(C1CC1c1nc3c(C)ncc(C)n3n1)n2C (racemic) [Compound 46, (±)-2-(2-(4-methoxy-1-methyl-1H-benzo [d]imidazol-2-yl)cyclopropyl)-5,8-dimethyl-[1,2,4]triazolo[1,5-a]pyrazine]
16 | > 500 nM | Cc1ccn2c(C)c(C3CC3c3cn4ccc(F)cc4n3)nc2c1 (stereo not drawn) [Compound 7, 2-(2-(7-Fluoroimidazo[1,2-a]pyridin-2-yl)cyclopropyl)-3,7-dimethylimidazo[1,2-a]pyridine]
17 | 100 to 500 nM | Clc1cccn2cc(C3CCC3c3cn4cccc(Cl)c4n3)nc12 (stereo not drawn) [Compound 23, 1,2-Bis(8-chloroimidazo[1,2-a]pyridin-2-yl)cyclobutane]
18 | > 500 nM | COc1cccn2c(F)c([C@@H]3C[C@H]3c3nc4c(C)ncc(C)n4n3)nc12 (single isomer, unassigned) [Compound 56, 2-(2-(3-fluoro-8-methoxyimidazo[1,2-a]pyridin-2-yl)cyclopropyl)-5,8-dimethyl-[1,2,4]triazolo[1,5-a]pyrazine]
19 | 100 to 500 nM | Cn1c([C@@H]2C[C@H]2c2ccc3ccccc3n2)nc2c3cccnc3ccc21 (single isomer, unassigned) [Compound 22]
20 | > 500 nM | COc1cccn2c(C)c(C3CCC3c3nc4c(C)ncc(C)n4n3)nc12 (racemic) [Compound 42, (±)-2-(2-(8-methoxy-3-methylimidazo[1,2-a]pyridin-2-yl)cyclobutyl)-5,8-dimethyl-[1,2,4]triazolo[1,5-a]pyrazine]
21 | 10 to 100 nM | COc1cccn2c(F)c(C3CC3c3nc4c(C)ncc(C)n4n3)nc12 (racemic) [Compound 55, (±)-2-(2-(3-fluoro-8-methoxyimidazo[1,2-a]pyridin-2-yl)cyclopropyl)-5,8-dimethyl-[1,2,4]triazolo[1,5-a]pyrazine]

Row | IC50 | Structure (SMILES)
22 | > 500 nM | Cc1cc2nc(C3CC3c3nc4c(C)ncc(C)n4n3)cn2cc1F (stereo not drawn) [Compound 18]
23 | 10 to 100 nM | CCOc1cccn2cc(C3CC3c3nc4c(C)ncc(C)n4n3)nc12 (stereo not drawn) [Compound 17]
24 | 100 to 500 nM | COc1cccc2[nH]c(C3CC3c3nc4c(C)ncc(C)n4n3)nc12 (racemic) [Compound 47, (±)-2-(2-(4-methoxy-1H-benzo[d]imidazol-2-yl)cyclopropyl)-5,8-dimethyl-[1,2,4]triazolo[1,5-a]pyrazine]
25 | 10 to 100 nM | Cc1ncc(C)n2nc(C3CC3c3nc4c(C5CC5)cccn4c3C)nc12 (stereo not drawn) [Compound 5, 2-(2-(8-Cyclopropyl-3-methylimidazo[1,2-a]pyridin-2-yl)cyclopropyl)-5,8-dimethyl-[1,2,4]triazolo[1,5-a]pyrazine]
26 | 10 to 100 nM | Cc1ncc(C)n2nc(C3CC3c3nc4c5cccc(F)c5ccn4c3C)nc12 (racemic) [Compound 30, (±)-2-(2-(5,8-dimethyl-[1,2,4]triazolo[1,5-a]pyrazin-2-yl)cyclopropyl)-7-fluoro-3-methylimidazo[2,1-a]isoquinoline]
27 | 10 to 100 nM | Cc1ncc(C)n2nc(C3CC3c3nc4c5c(ccn4c3C)OCCO5)nc12 (racemic) [Compound 35, (±)-9-(2-(5,8-dimethyl-[1,2,4]triazolo[1,5-a]pyrazin-2-yl)cyclopropyl)-8-methyl-2,3-dihydro-[1,4]dioxino[2,3-c]imidazo[1,2-a]pyridine]
28 | > 500 nM | COc1ccn2cc(C3CC3c3nc4c(C)ncc(C)n4n3)nc2c1C (stereo not drawn) [Compound 2, 2-(2-(7-Methoxy-8-methylimidazo[1,2-a]pyridin-2-yl)cyclopropyl)-5,8-dimethyl-[1,2,4]triazolo[1,5-a]pyrazine]
29 | 100 to 500 nM | Cc1ncc(C)n2nc([C@H]3C[C@@H]3c3nc4c5cccnc5ccc4n3C)nc12 [Compound 28]
30 | 100 to 500 nM | COc1ccn2c(C)c(C3CC3c3nc4c(C)ncc(C)n4n3)nc2c1 (stereo not drawn) [Compound 13]
31 | 10 to 100 nM | COc1cccn2c(F)c([C@@H]3C[C@H]3c3nc4c(C)ncc(C)n4n3)nc12 (single isomer, unassigned) [Compound 57, 2-(2-(3-fluoro-8-methoxyimidazo[1,2-a]pyridin-2-yl)cyclopropyl)-5,8-dimethyl-[1,2,4]triazolo[1,5-a]pyrazine]
32 | 10 to 100 nM | CCOc1cccn2c(C)c(C3CC3c3nc4c(C)ncc(C)n4n3)nc12 (racemic) [Compound 32, (±)-2-(2-(8-ethoxy-3-methylimidazo[1,2-a]pyridin-2-yl)cyclopropyl)-5,8-dimethyl-[1,2,4]triazolo[1,5-a]pyrazine]
33 | > 500 nM | Fc1cccn2cc(C3CC3c3cn4cccc(F)c4n3)nc12 (stereo not drawn) [Compound 10]
34 | > 500 nM | Cc1ncc(C)n2nc(C3CC3c3nc4cc(F)ccn4c3C)nc12 (stereo not drawn) [Compound 4]
35 | > 500 nM | COc1ccn2c(C)c(C3CCC3c3nc4c(C)ncc(C)n4n3)nc2c1 (racemic) [Compound 43, (±)-2-(2-(7-methoxy-3-methylimidazo[1,2-a]pyridin-2-yl)cyclobutyl)-5,8-dimethyl-[1,2,4]triazolo[1,5-a]pyrazine]
36 | 10 to 100 nM | Cc1ncc(C)n2nc(C3CC3c3nc4c5c(ccn4c3F)OCCO5)nc12 (racemic) [Compound 48, (±)-9-(2-(5,8-dimethyl-[1,2,4]triazolo[1,5-a]pyrazin-2-yl)cyclopropyl)-8-fluoro-2,3-dihydro-[1,4]dioxino[2,3-c]imidazo[1,2-a]pyridine]
37 | > 500 nM | Fc1ccn2cc(C3CCC3c3cn4cccc(Cl)c4n3)nc2c1 (stereo not drawn) [Compound 24, 8-Chloro-2-(2-(7-fluoroimidazo[1,2-a]pyridin-2-yl)cyclobutyl)imidazo[1,2-a]pyridine]
38 | 10 to 100 nM | COc1cccn2c(C)c(C3CC3c3nc4c(C)ncc(C)n4n3)nc12 (stereo not drawn) [Compound 15]
39 | 100 to 500 nM | Cc1cc2nc(C3CC3c3nc4c(C)ncc(C)n4n3)c(C)n2cc1F (racemic) [Compound 33, (±)-2-(2-(6-fluoro-3,7-dimethylimidazo[1,2-a]pyridin-2-yl)cyclopropyl)-5,8-dimethyl-[1,2,4]triazolo[1,5-a]pyrazine]
40 | 100 to 500 nM | COc1cccn2cc(C3CC3c3nc4c(C)ncc(C)n4n3)nc12 (racemic) [Compound 59, (±)-2-(2-(8-methoxyimidazo[1,2-a]pyridin-2-yl)cyclopropyl)-5,8-dimethyl-[1,2,4]triazolo[1,5-a]pyrazine]
41 | > 500 nM | Clc1cccn2cc(C3CC3c3cn4cccc(Cl)c4n3)nc12 (stereo not drawn) [Compound 11]
42 | > 500 nM | COc1ccn2cc(C3CC3c3nc4c(C)ncc(C)n4n3)nc2c1 (stereo not drawn) [Compound 16]
